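Five concentrations, 48 hours, 96-well plates. GI50 = concentration required for 50% inhibition of growth. TGI marks complete inhibition of growth.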
Key:
Assay in all cases: DTP human tumour cell line panel, 48 h
CCRF-CEM leukemia = test system: CCRF-CEM leukemia
COLO 205 colon = test system: COLO 205 colon
DU-145 prostate = test system: DU-145 prostate
HOP-92 NSCLC = test system: HOP-92 NSCLC
MOLT-4 leukemia = test system: MOLT-4 leukemia
OVCAR-5 ovarian = test system: OVCAR-5 ovarian
SF-295 CNS = test system: SF-295 CNS
SN12C renal = test system: SN12C renal
TK-10 renal = test system: TK-10 renal
UACC-257 melanoma = test system: UACC-257 melanoma

SMILES | TGI (CCRF-CEM leukemia) [µM] | TGI (COLO 205 colon) [µM] | TGI (DU-145 prostate) [µM] | TGI (HOP-92 NSCLC) [µM] | TGI (MOLT-4 leukemia) [µM] | TGI (OVCAR-5 ovarian) [µM] | TGI (SF-295 CNS) [µM] | TGI (SN12C renal) [µM] | TGI (TK-10 renal) [µM] | TGI (UACC-257 melanoma) [µM] | GI50 (CCRF-CEM leukemia) [µM] | GI50 (COLO 205 colon) [µM] | GI50 (DU-145 prostate) [µM] | GI50 (HOP-92 NSCLC) [µM] | GI50 (MOLT-4 leukemia) [µM] | GI50 (OVCAR-5 ovarian) [µM] | GI50 (SF-295 CNS) [µM] | GI50 (SN12C renal) [µM] | GI50 (TK-10 renal) [µM] | GI50 (UACC-257 melanoma) [µM]
Cc1ccc(C(=O)CCC2C(=O)CC(C)(C)CC2=O)cc1 | 55.1 | > 100 | > 100 | > 100 | > 100 | > 100 | > 100 | > 100 | > 100 | > 100 | – | – | – | – | – | – | – | – | – | –
COc1ccc(-c2nc(N)c3ncn(C4OC(CO)C(O)C4O)c3n2)cc1 (stereo not drawn) | > 100 | > 100 | > 100 | > 100 | > 100 | > 100 | > 100 | > 100 | > 100 | > 100 | – | – | – | – | – | – | – | – | – | –
CN(C)Cc1cccc(CN(C)C)[c]1[Sn]([Br])([c]1ccccc1)[c]1ccccc1 | > 100 | 17.9 | 49.5 | 9.74 | 20.5 | 32.5 | 32.1 | 35.6 | 46.9 | 53.7 | 5.45 | 4.37 | 20.2 | 2.15 | 5.02 | 16.7 | 14.8 | 16.7 | 17.2 | 16
O=C(NC1CCN(Cc2ccccc2)CC1)c1cc(C(=O)NC2CCN(Cc3ccccc3)CC2)cc(C(=O)NC2CCN(Cc3ccccc3)CC2)c1 | 5.17 | 10.6 | > 50 | 12.3 | 3.16 | 13.7 | 15.6 | > 50 | > 50 | 16.5 | 1.75 | 3.62 | 18.2 | 5.55 | 1.22 | 6.83 | 6.76 | 15.6 | 18.3 | 8.08
CN(C)c1ccc2cc(-c3cc4c(oc3=O)-c3ccccc3OC4O)c(=O)oc2c1 (stereo not drawn) | 7.95 | 8.19 | 15.9 | 17.7 | 5.51 | 12.8 | 10.3 | 19.9 | 19.8 | 10.6 | 2.54 | 3.89 | 5.18 | 7.49 | 0.919 | 5.35 | 3.59 | 6.2 | 6.63 | 2.79
CC1OC(O[C@H]2/C=C/C=C/C=C/C=C/C=C/C=C/C=C/[C@H](C)[C@@H](O)[C@@H](C)[C@H](C)OC(=O)C[C@H](O)C[C@H](O)CC[C@@H](O)[C@H](O)C[C@H](O)C[C@]3(O)C[C@H](O)[C@@H](C(=O)O)[C@H](C2)O3)C(O)C(N)C1O (stereo partly drawn) | 48.6 | 45.2 | 39.2 | 52.9 | 75.4 | 62.3 | > 72.8 | 9.15 | 46.3 | 40.4 | 9.99 | – | 12.7 | – | 29.2 | 27.3 | > 61.3 | 2.01 | 27.2 | 12.2
O=C(Nc1ccc(Cl)cc1)c1cc2cc(F)ccc2cc1O | 15.6 | 6.4 | > 100 | 0.809 | 16.4 | > 100 | 6.72 | > 100 | 58.9 | 5.2 | 3.35 | 2.35 | 2.18 | 0.288 | 3.24 | 3.28 | 2.47 | 1.78 | 2.39 | 1.34
C[C@@H](Oc1cc(NS(=O)(=O)N2CCC2)nc(SCc2cccc(F)c2F)n1)[C@@H](O)CO | > 100 | > 100 | > 100 | > 100 | > 100 | > 100 | > 100 | > 100 | > 100 | > 100 | > 100 | > 100 | > 100 | > 100 | > 100 | > 100 | > 100 | > 100 | > 100 | > 100
N=C1C(c2nc3ccccc3s2)=C(O)CN1c1ccc(Cl)cc1Cl | > 100 | > 100 | 63.7 | 38.1 | > 100 | > 100 | 52.4 | 32.4 | 42.8 | 45.3 | 19.2 | 36.6 | 18.9 | 15.8 | 22.7 | 34.8 | 12.7 | 13.5 | 14.4 | 7
COC1CC2C=CC3C4OC2(/C(C)=C/C(C)C(C(C)O)OC1=O)C3C(O)C(C)C4OC(=O)c1ccc[nH]1 (stereo not drawn) | > 100 | > 100 | > 100 | > 100 | 71.2 | > 100 | > 100 | > 100 | > 100 | > 100 | – | – | – | – | – | – | – | – | – | –
O=C1/C(=C/c2ccccc2Br)COc2ccc(O)c(O)c21 | 1.55 | 3.95 | 3.23 | 9 | 53.4 | 4.39 | 8.04 | 3.62 | 4.09 | 5.17 | 0.311 | 1.96 | 1.49 | 2.71 | 0.504 | 2.15 | 2.96 | 0.937 | 2.01 | 1.53
NCC1OC(n2cnc3c(=O)[nH]c(N)nc32)C(O)C1O (stereo not drawn) | > 100 | > 100 | > 100 | > 100 | > 100 | > 100 | > 100 | > 100 | > 100 | > 100 | – | – | – | – | – | – | – | – | – | –
Oc1cccc(Cn2c(-c3cccc(O)c3O)nc3ccccc32)c1O | > 100 | 32.2 | 20.5 | > 100 | > 100 | 48.1 | 10.5 | 16.3 | 7.52 | 50.1 | 7.56 | 11.7 | 4.89 | 36.8 | 3.21 | 10.9 | 1.88 | 3.4 | 1.88 | 19.3
O=c1ccccc(-c2ccc(-c3ccco3)cc2)c1O | > 100 | 49.8 | > 100 | 39.8 | 51.5 | 42 | 13.6 | 16.6 | 82.9 | 18.8 | 0.505 | 3.1 | 0.967 | 2.05 | 0.501 | 2.79 | 0.555 | 1.24 | 0.819 | 1.6

— PubChem BioAssay (NCI)
